According to US20240002470A1, “Method for separation and/or detection and/or in vitro quantification of infectious compounds in biological material” (priority 2020, published 2024):

Legend:
[1] = tested on: BVDV virus (Bovine viral Diarrhea Virus); experiment: Capture of BVDV virus on magnetic microbeads coated with pepβ2GPI; type: binding
Experimental: The pepβ2GPI were grafted onto the microbeads according to the supplier's recommendations. In summary, the microbeads are suspended in phosphate buffer at a pH of 6.0. The beads are then activated, for 15 minutes, in the presence of 1-ethyl-3-(3-Dimethylaminopropyl) carbodiimide and N-hydroxysuccinimide. After washing with HCl, 2 mM, the beads are suspended in a phosphate buffer at a pH of 7.5, containing the pepβ2GPI. The concentration of pepβ2GPI in this coupling buffer is 20 mg/L; the microbeads are incubated in the buffer with gentle and constant shaking at a temperature of 25° C. for 3 hours. The microbeads are then centrifuged at 1,500 rpm and the supernatant is removed; the centrifugation pellet is suspended in the same buffer as that used for the coupling of pepβ2GPI, which forms the suspension of microbeads coated with pepβ2GPI which we want to test.
One hundred microliters of viral culture supernatant to be studied are placed in an Eppendorf tube with 900 microliters of Tris buffer at a pH of 7.5 and 10 microliters of microbeads. The tubes are shaken horizontally to mix the microbeads well, and each tube is incubated at 37° C. or at room temperature (RT=22° C.) for 30 minutes. In each tube, the microbeads are then separated from the liquid phase by means of a magnet, placed externally against the wall of the tube, and the viral RNA is extracted. The beads are brought into contact with a viral lysis buffer, included in an RNA extraction kit: QIAamp RNA viral kit, sold by QIAGEN and the viral RNA is isolated according to the seller's recommendations.
The viruses tested are the HSV virus (Herpes Simplex virus) and the BVDV virus (Bovine viral Diarrhea Virus).
The same protocol as that described in example 1 was carried out.

S. aureus ATCC 6538 = experiment: Capture on magnetic microbeads coated with pepβ2GPI: C5 S. aureus ATCC 6538; type: binding
Experimental: To test the interaction of microbeads coated with β2GPI and the peptides derived from them, with bacteria present in the blood, 1 ml of blood culture is taken from each sample and placed in a 15 ml tube. 20 μl of microbeads are added and each tube is incubated at 37° C. with horizontal shaking. The tubes are then placed in a magnetic field which retains the microbeads on the wall and the supernatant is removed. The microbeads are then washed twice with sterile PBS, of the same composition as previously indicated; the microbeads are then resuspended in 150 μl of BTS culture medium. Two methods for detecting bacteria captured by microbeads were used: culture on TS agar and PCR For the detection of the bacterial capture by culture, 50 μl of the suspension of microbeads thus obtained are taken and they are spread out in a Petri dish containing TS agar. Petri dishes are incubated in an oven at 37° C. for 24 hours. The bacteria that have grown on the agar were then counted.
The tested bacteria are: C3 E. coli ATCC 11105, C5 S. aureus ATCC 6538, H61 E. coli B6054, C1: E. coli ATCC 8739, H46: C. albicans 1 and H: 60 SCN
The same protocol and primers as those described in example 9 were carried out.

S. aureus, SA 378804 = experiment: Capture of S. aureus SA 378804 on magnetic microbeads, culture and counting; type: binding, Staphylococcus aureus; conditions: S. aureus SA 378804 colonies from captured beads
Experimental: One ml of the culture of bacteria to be studied is placed in a hemolysis tube. 100 μl of buffer are added, the trade name of which is TTGB, then 20 μl of microbeads. The tube is stirred horizontally, to mix the microbeads well, and incubated at 37° C. or at room temperature (TA=22° C.) for half an hour. At the end of the incubation, the microbeads are separated from the liquid phase by means of a magnet, placed externally against the wall of the tube. The microbeads are then washed twice with LB medium and then resuspended in 1 ml of BTS culture medium (Tripticase-Soy broth) having the following formulation: […]
This culture medium is brought to a boil and then autoclaved, to make it sterile, before use. 20 μl of the microbead suspension are taken and spread in a Petri dish containing TS agar (Trypticase-Soya agar) having the following formulation: […]
The Petri dishes are incubated at +37° C. for 24 hours. The bacteria that have grown on the agar are then counted.
The used bacterium is a strain of Staphylococcus aureus (S. aureus), SA 378804, isolated from the wound of the foot of a diabetic person, Sotto et al., Diabetes Care (2008) 31 (12), p. 2318-24. The same experiment as that described in the previous example was carried out.

Molecule: H-((SSLAFWK)2-K)2-K—NH2 [Peptide P11]
- Capture of BVDV virus [1]: 266%
- Capture of C5 S. aureus ATCC 6538 (S. aureus ATCC 6538): 63%

B1: β2GPI: plasma glycoprotein called β2-glycoprotein I, grafted on beads as the reference (protein, UniProt P02749 20-345, looked up)
Beta-2-glycoprotein 1: GRTCPKPDDLPFSTVVPLKTFYEPGEEITYSCKPGYVSRGGMRKFICPLTGLWPINTLKCTPRVCPFAGILENGAVRYTTFEYPNTISFSCNTGFYLNGADSAKCTEEGKWSPELPVCAPIICPPPSIPTFATLRVYKPSAGNNSLYRDTAVFECLPQHAMFGNDTITCTTHGNWTKLPECREVKCPFPSRPDNGFVNYPAKPTLYYKDKATFGCHDGYSLDGPEEIECTKLGNWSAMPSCKASCKVPVKKATVVYQGERVKIQEKFKNGMLHGDKVSFFCKNKEKKCSYTEDAQCIDGTIEVPKCFKEHSSLAFWKTDASDVKPC
modifications: grafted on beads
- % compared to β2GPI (S. aureus, SA 378804): 100%
